Experimental data from patent publication US9155696B2, “Pharmaceutical compositions” (Novartis AG, priority 2008, dated 2015).

System: erythrocytes of female and male blood donor
Test: Hemolysis study of solvents
Format: cell-based
Conditions: for Hemolysis [%]: female and male blood donor (n = 4)
Method: To outline the suitability of PEG500DME as a solvent for parenteral use, a hemolysis study was performed: […]

[1] = dilution 1:2 with 0.9% NaCl solution
[2] = dilution 1:4 with 0.9% NaCl solution
[3] = dilution 1:8 with 0.9% NaCl solution
[4] = dilution 1:16 with 0.9% NaCl solution
[5] = dilution 1:32 with 0.9% NaCl solution
[6] = dilution 1:64 with 0.9% NaCl solution
[7] = dilution 1:128 with 0.9% NaCl solution

SMILES: CN1CCCC1=O [NMP, 1-methyl-2-pyrrolidinone]
- Hemolysis [%] in donor one (dilution 0 (pure solvent)): 28%
- Hemolysis [%] in donor one [1]: 0%
- Hemolysis [%] in donor one [2]: 0%
- Hemolysis [%] in donor one [3]: 0%
- Hemolysis [%] in donor one [4]: 0%
- Hemolysis [%] in donor one [5]: 0%
- Hemolysis [%] in donor one [6]: 0%
- Hemolysis [%] in donor one [7]: 0%
- Hemolysis [%] in donor two (dilution 0 (pure solvent)): 54%
- Hemolysis [%] in donor two [1]: 10%
- Hemolysis [%] in donor two [2]: 1%
- Hemolysis [%] in donor two [3]: 1%
- Hemolysis [%] in donor two [4]: 1%
- Hemolysis [%] in donor two [5]: 1%
- Hemolysis [%] in donor two [6]: 1%
- Hemolysis [%] in donor two [7]: 1%
- Hemolysis [%] [1]: 7.8 ± 5.6%
- Hemolysis [%] [2]: 0.5 ± 0.6%
- Hemolysis [%] [3]: 0.3 ± 0.5%
- Hemolysis [%] [4]: 0.3 ± 0.5%
- Hemolysis [%] [5]: 0.3 ± 0.5%
- Hemolysis [%] [6]: 0.3 ± 0.5%
- Hemolysis [%] [7]: 0.3 ± 0.5%
